Measured values: PubChem BioAssay AID493193 (Broad Institute, 2011)
Activity calls are given as the source filed them. No rule for the calls is given here.

What was measured:
[1] = test system: U2OS HRE-luciferase reporter, luminescence, HIF pathway activation; assay: PubChem AID 493193
PubChem AID 493193 = settings: U2OS HRE-luciferase reporter, luminescence, HIF pathway activation; at 38 µM (top of the series)

Structure (SMILES) | AC40 [1] | activation (PubChem AID 493193)
c1ccc(-c2ccc(CNc3nc(-c4ccccn4)nnc3-c3ccccc3)cc2)cc1 | 1.92 µM | –
COc1cccc(CNc2nc(-c3ccccn3)nnc2-c2ccccc2)c1 | 4.85 µM | –
c1ccc(-c2nnc(-c3ccccn3)nc2NCCc2ccccn2)cc1 | 15.4 µM | –
CC(Nc1nc(-c2ccccn2)nnc1-c1ccccc1)c1ccccc1 (stereo not given) | 5.33 µM | –
COc1ccccc1N1CCN(Cc2ccc(O)c3ncccc23)CC1 | – | 10.3% (inactive)
N#CC1(c2ccccc2)CCN(Cc2ccc(O)c3ncccc23)CC1 | – | 9.09% (inactive)
CC(C)(C)CCNc1nc(-c2ccccn2)nnc1-c1ccccc1 | 2.74 µM | –
COc1ccc(CNc2nc(-c3ccccn3)nnc2-c2ccccc2)cc1 | 5.05 µM | –
C[C@@H](Nc1nc(-c2ccccn2)nnc1-c1ccccc1)C1CCCCC1 | 6.18 µM | –
Oc1ccc(CN2CCC3CCCCC3C2)c2cccnc12 (stereo not given) | 32.7 µM | –
c1ccc(-c2cccc(CNc3nc(-c4ccccn4)nnc3-c3ccccc3)c2)cc1 | 2.15 µM | –
c1ccc(-c2nnc(-c3ccccn3)nc2NCc2ccccn2)cc1 | 26 µM | –
Clc1cccc(CNc2nc(-c3ccccn3)nnc2-c2ccccc2)c1 | 2.5 µM | –
Oc1ccc(CN2CCC(Cc3ccccc3)CC2)c2cccnc12 | – | 14.5% (inactive)
OCC1CCN(Cc2ccc(O)c3ncccc23)CC1 | – | 8.79% (inactive)
CC1CN(Cc2ccc(O)c3ncccc23)CC(C)O1 (stereo not given) | – | 1.16% (inactive)
Oc1ccc(CN2CCc3ccccc3C2)c2cccnc12 | 19.5 µM | 0.929% (inactive)
c1ccc(-c2nnc(-c3ccccn3)nc2N2CCC(C3CCCCC3)C2)cc1 (stereo not given) | 3.71 µM | –
C[C@H](Nc1nc(-c2ccccn2)nnc1-c1ccccc1)C1CCCCC1 | 4.15 µM | –
c1ccc(-c2nnc(-c3ccccn3)nc2N2CCC(c3ccccc3)C2)cc1 (stereo not given) | 3.55 µM | –
CC(C)(C)c1ccc(CNc2nc(-c3ccccn3)nnc2-c2ccccc2)cc1 | 2.09 µM | –
c1ccc(-c2nnc(-c3ccccn3)nc2NCc2cccnc2)cc1 | 24.3 µM | –
C[C@@H](Nc1nc(-c2ccccn2)nnc1-c1ccccc1)c1ccccc1 | 6.45 µM | –
c1ccc(CCNc2nc(-c3ccccn3)nnc2-c2ccccc2)cc1 | 2.98 µM | –
Oc1ccc(CNC2CCc3ccccc32)c2cccnc12 (stereo not given) | – | 7.38% (inactive)
c1ccc(-c2nnc(-c3ccccn3)nc2NCC2CCOCC2)cc1 | 26.1 µM | –
CC(C)(C)OC(=O)N1CCN(Cc2ccc(O)c3ncccc23)CC1 | – | 4.98% (inactive)
Cc1ccc(CNc2nc(-c3ccccn3)nnc2-c2ccccc2)cc1C | 3.09 µM | –
Oc1ccc(CNC2Cc3ccccc3C2)c2cccnc12 | – | 21.4% (inactive)
